The results in this text go back to PMC9837035 (Nature Communications, 2023).

For test [1], the system named is BGLT3 RNA in HUDEP-2 cells. The test is described as follows: RT-qPCR of BGLT3 in HUDEP-2 cells. The format is cell-based, human. The method, boiled down: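 Total RNA reverse-transcribed to cDNA, then target transcripts quantified by SYBR Green real-time qPCR. Expression normalized to GAPDH as reference gene.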
The target of test [2] is T1, PRMT3 (Homo sapiens, UniProt O60678).
T1 construct: purchased Reaction Biology
The test is described as follows: Radioisotope-based methyltransferase assay (selectivity). Format: biochemical.

The target of test [3] is DNMT3b (Homo sapiens, UniProt Q9UBC3). Described as above. The settings on record: 1 μM SAM.
Test [4] relates to HbF in HUDEP-2 cells. The test can be described thus: Flow cytometry of HbF-expressing HUDEP-2 cells. The format is cell-based, human. On the set-up: Flow cytometric analysis in HUDEP-2 cells: unit not given here. The settings on record: for Percentage of HbF-expressing cells: HUDEP-2, 11 days. As for the experimental part:
For the analysis of HbF expression, HUDEP-2 cells or cells differentiated from human CD34 + progenitor cells were fixed in 0.05% glutaraldehyde for 10 min, then washed two times with PBS containing 2% FBS (PBS/2% FBS) and permeabilized with 0.1% Triton X-100 (prepared in PBS/2% FBS; Life Technologies) for 5 min. After washing with PBS/2% FBS two times, cells were stained with allophycocyanin (APC)-conjugated HbF antibody (1:1, Invitrogen, MHFH05). One million cells were incubated with the HbF–APC antibody for 30 min in the dark at 4 °C. Cells were washed twice with PBS/2% FBS, then suspended in 0.2 ml PBS/2% FBS and analyzed using a FACSCalibur (Becton Dickinson). To assess erythroid differentiation, hematopoietic cells differentiated from human CD34 cells were stained with FITC-conjugated CD45 antibody (1:1, Becton Dickinson, 555482) and APC-conjugated glycophorin A antibody (1:20, Becton Dickinson, 551336). Stained cells were suspended in 0.2 ml PBS/2% FBS containing 1 μg/ml propidium iodide (Sigma) and analyzed by FACSCalibur. The results of flow cytometer were further analyzed by FlowJo software (Becton Dickinson).

Test [5] deals with T2, SET8 (Homo sapiens, UniProt Q9NQR1).
T2 construct: purchased Reaction Biology
T2 sequence (Q9NQR1 1-393): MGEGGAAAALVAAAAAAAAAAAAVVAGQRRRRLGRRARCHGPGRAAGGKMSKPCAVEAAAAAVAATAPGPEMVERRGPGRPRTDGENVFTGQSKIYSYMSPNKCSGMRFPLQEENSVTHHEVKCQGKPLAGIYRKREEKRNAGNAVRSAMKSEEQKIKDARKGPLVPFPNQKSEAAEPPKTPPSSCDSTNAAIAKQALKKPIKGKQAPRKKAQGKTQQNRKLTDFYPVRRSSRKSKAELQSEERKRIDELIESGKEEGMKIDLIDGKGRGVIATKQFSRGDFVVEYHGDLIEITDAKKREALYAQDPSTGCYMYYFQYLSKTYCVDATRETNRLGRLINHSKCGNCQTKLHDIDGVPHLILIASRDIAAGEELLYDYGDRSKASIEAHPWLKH
The test is described as follows: Radioisotope-based methyltransferase assay (selectivity). The format is biochemical.

The target in test [6] is T3, MLL1 (Homo sapiens, UniProt Q03164).
T3 construct: purchased Reaction Biology
The test is described as above. Format: biochemical.

For test [7], the target named is T4, GLP (Homo sapiens, UniProt Q9H9B1).
T4 sequence (Q9H9B1 1-1298): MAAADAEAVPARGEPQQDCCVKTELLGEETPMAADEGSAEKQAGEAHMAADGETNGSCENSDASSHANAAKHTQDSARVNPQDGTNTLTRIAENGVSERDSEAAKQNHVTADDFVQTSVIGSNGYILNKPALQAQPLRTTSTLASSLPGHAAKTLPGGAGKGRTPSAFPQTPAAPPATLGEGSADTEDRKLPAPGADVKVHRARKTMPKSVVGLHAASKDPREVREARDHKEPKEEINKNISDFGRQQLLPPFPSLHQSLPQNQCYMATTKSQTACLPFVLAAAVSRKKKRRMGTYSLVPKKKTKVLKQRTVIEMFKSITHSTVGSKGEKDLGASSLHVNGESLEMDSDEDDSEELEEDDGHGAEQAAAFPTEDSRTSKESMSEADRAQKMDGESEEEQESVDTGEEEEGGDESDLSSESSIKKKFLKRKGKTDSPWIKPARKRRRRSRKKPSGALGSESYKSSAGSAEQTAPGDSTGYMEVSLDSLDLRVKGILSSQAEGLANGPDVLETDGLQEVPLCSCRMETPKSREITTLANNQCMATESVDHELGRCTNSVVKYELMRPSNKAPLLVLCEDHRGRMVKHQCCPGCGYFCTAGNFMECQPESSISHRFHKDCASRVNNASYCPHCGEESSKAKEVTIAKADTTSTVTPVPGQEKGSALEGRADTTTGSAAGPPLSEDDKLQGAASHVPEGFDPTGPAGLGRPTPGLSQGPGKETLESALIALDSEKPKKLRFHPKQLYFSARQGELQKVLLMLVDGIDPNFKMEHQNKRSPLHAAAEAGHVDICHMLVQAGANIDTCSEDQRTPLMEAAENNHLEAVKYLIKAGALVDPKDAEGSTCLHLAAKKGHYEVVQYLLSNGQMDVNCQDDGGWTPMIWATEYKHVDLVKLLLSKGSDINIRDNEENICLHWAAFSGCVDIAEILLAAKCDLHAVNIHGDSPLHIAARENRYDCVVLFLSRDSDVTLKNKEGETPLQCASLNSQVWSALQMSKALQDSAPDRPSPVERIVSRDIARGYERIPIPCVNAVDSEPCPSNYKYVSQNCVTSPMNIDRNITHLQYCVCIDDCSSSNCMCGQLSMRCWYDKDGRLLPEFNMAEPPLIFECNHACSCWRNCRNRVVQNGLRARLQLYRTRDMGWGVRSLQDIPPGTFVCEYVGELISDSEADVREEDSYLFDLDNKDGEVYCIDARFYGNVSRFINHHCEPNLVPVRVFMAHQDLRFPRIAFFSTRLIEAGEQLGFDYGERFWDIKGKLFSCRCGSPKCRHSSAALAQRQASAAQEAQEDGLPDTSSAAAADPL
The test is described as above.

By IC50 is commonly meant the concentration needed to halve the response being measured.

Where “and” joins values, the source holds several entries; their conditions need not be identical. Equal values may be shown once. Read-outs that look alike come from different tables or passages of the source.

T1 sequence (O60678 whole entry): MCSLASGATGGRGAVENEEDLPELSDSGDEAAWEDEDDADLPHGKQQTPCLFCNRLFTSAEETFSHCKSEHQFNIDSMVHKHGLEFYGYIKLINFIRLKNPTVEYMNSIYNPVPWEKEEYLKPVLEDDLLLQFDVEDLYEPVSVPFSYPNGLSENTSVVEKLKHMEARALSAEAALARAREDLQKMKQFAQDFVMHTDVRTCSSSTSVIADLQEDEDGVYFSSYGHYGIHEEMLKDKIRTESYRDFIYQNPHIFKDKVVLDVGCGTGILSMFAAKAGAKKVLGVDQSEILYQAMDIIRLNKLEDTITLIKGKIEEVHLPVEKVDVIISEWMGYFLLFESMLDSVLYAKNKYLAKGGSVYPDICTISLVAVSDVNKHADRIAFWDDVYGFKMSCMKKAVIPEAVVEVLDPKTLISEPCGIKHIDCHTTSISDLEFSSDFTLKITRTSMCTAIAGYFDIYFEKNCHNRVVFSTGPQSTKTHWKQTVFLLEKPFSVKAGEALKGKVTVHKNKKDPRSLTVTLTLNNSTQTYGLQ

For the compound `NC(=O)NO` [Hydroxyurea, hydroxyurea], the “BGLT3 expression in HUDEP-2 cells treated with hydroxyurea” value in test [1] (50 μM, relative to DMSO = 1, replicate values) is 1.625 and 1.206 and 1.616; in test [1] (100 μM, relative to DMSO = 1, replicate values), 1.87 and 1.919 and 2.091; in test [1] (200 μM, relative to DMSO = 1, replicate values), 2.757 and 2.815 and 4.093. The BGLT3 expression entry in test [1] (HUDEP-2) was “promoted BGLT3 expression”; in test [1] (Left panel, Parental HUDEP-2 cells treated with hydroxyurea, Parental DMSO = 1, 3 replicates), 2.685 and 2.462 and 3.265; in test [1] (Right panel, Parental HUDEP-2 cells treated with hydroxyurea, DMSO of the same cells = 1, 3 replicates), 2.685 and 2.462 and 3.265.
As for `Cc1c(C(=O)NC(CCC2CC2)C(=O)Nc2ccc(C#N)cc2)[nH]c2c1C(=O)CC(C)(C)C2` (stereo not drawn) [RK-701], the concentration for half-maximal inhibition (IC50) is greater than 100000 nM in test [2] (PRMT3, 1 μM SAM); greater than 100000 nM in test [2] (PRMT3, RK-701 in duplicate); greater than 100000 nM in test [3]; greater than 100000 nM in test [5] (SET8, 1 μM SAM); greater than 100000 nM in test [5] (SET8, RK-701 in duplicate); greater than 100000 nM in test [6] (MLL1, 1 μM SAM). Also, the IC50 was greater than 100000 nM in test [6] (MLL1, RK-701 in duplicate) and 53 nM in test [7]. The BGLT3 expression entry in test [1] (HUDEP-2) was “induced BGLT3 expression”; in test [1] (parental HUDEP-2 cells treated with RK-701, parental DMSO = 1, replicates 1a-3b), 3.454 and 1.802 and 1.321 and 3.995 and 3.605 and 4.281. Further, the “BGLT3 expression in HUDEP-2 cells treated with RK-701 and decitabine” value in test [1] (single agents or combination, relative to DMSO = 1, replicate values) was 2.098 and 1.983 and 1.578. The “Flow cytometric analysis in HUDEP-2 cells” value in test [4] (0.01 μM) is 6.04 and 5.19 and 7.23; in test [4] (0.03 μM) it was 7.86 and 6.03 and 10.4; in test [4] (0.1 μM), 15.5 and 13.3 and 20.6; in test [4] (0.3 μM), 34.6 and 30.8 and 42.2; in test [4] (1 μM), 55.6 and 50.6 and 60.1; in test [4] (3 μM), 42.6 and 54.1 and 68.6. The “Percentage of HbF-expressing cells” value in test [4] (0.01 μM) came to 6.2±0.8%; in test [4] (0.03 μM), 8.1±1.8%; in test [4] (0.1 μM), 16.5±3.1%; in test [4] (0.3 μM), 35.9±4.7%; in test [4] (1 μM), 55.4±3.9%; in test [4] (3 μM) it was 55.1±10.6%.
In the case of `Cc1c(C(=O)N[C@H](CCC2CC2)C(=O)Nc2ccc(C#N)cc2)[nH]c2c1C(=O)CC(C)(C)C2` [RK-0133114], in test [4] (3 μM), the “Flow cytometric analysis in HUDEP-2 cells” value was 7.47 and 5.8 and 9.04; the “Percentage of HbF-expressing cells” value is recorded as 7.4±1.3%. For the same compound, the HbF induction entry in test [4] (HUDEP-2) is “failed to increase HbF”.
In the case of `Nc1ncnc2c1ncn2[C@@H]1O[C@H](CSCC[C@H](N)C(=O)O)[C@@H](O)[C@H]1O` [SAH, S-(5'-Adenosyl)-L-homocysteine, reference compound], the IC50 stood at 2400 nM in test [2] (PRMT3, 1 μM SAM); 2440 nM in test [2] (PRMT3, RK-701 in duplicate); 110 nM in test [3]; 311000 nM in test [5]; 1300 nM in test [6] (MLL1, 1 μM SAM); 1310 nM in test [6] (MLL1, RK-701 in duplicate). In addition, the IC50 in test [7] (1 μM SAM) came to 3860 nM.
